In general, IC50 refers to the point on the concentration scale where inhibition reaches its midpoint.

27 molecules from patent US11926614B2, “1,2,4-triazole derivatives as tankyrase inhibitors” (priority 2018, dated 2024) can be followed below.

The structures appear in SMILES notation. Where two headings read alike, the source gives them in different places.

The test system of one assay is HEK293. In words: Cellular IC50 HEK293. It counts as cell-based. The source says: (§1) XLfit (idbs) was used to determine the IC50-values in inhibition experiments. The following formula was chosen to fit the data points (Langmuir Binding Isotherm): fit=((A+(B*x))+4(C−B)*(1−exp((−1*D)*x)))/D)), res=(y−fit)
The next assay concerns the target TNKS2 (Homo sapiens (Human), UniProt Q9H2K2). In words: Biochemical IC50 TNKS2. Particulars: read-out: Biochemical IC50 TNKS2.
From the text: as §1

The mark [1] stands for this setting: Homo sapiens, HEK293, HEK293; read-out: Cellular IC50 HEK293.
[2] abbreviates: Homo sapiens, HEK293, read-out: Cellular IC50 HEK293.

TNKS2, sequence (Q9H2K2 whole entry): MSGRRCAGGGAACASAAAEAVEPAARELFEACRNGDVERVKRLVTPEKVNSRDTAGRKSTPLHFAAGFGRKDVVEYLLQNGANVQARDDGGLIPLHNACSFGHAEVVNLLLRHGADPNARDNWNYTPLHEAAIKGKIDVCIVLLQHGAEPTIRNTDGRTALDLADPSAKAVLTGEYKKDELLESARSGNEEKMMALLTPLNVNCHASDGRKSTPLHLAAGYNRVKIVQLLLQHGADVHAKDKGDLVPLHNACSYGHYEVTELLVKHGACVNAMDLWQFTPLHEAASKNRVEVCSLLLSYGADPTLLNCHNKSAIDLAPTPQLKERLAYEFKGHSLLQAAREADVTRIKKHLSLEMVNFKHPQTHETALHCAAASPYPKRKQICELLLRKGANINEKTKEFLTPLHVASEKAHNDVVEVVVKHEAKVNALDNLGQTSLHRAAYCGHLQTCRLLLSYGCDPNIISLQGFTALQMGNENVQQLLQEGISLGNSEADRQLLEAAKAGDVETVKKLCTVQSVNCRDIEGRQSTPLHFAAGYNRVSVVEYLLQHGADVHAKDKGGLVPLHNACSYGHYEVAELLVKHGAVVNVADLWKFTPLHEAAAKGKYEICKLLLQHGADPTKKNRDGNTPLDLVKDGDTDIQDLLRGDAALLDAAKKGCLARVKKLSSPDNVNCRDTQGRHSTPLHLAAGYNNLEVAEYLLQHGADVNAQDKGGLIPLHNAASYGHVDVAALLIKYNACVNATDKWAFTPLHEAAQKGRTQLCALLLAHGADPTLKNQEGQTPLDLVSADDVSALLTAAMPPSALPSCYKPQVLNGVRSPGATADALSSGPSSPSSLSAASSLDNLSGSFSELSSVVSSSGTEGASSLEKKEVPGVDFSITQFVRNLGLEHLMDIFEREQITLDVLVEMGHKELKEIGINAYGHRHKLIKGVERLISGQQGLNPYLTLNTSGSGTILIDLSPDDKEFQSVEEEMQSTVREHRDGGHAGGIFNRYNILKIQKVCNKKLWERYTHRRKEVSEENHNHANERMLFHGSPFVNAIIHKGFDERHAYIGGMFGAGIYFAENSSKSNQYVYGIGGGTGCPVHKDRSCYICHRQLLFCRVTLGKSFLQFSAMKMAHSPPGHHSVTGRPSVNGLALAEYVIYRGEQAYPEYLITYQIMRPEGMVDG

As for `CCOc1ccc(-c2nnc([C@H]3C[C@H](NC(=O)c4nc5ccccc5[nH]4)C3)n2-c2ccccc2)nc1` [Example 73, N-((1r,3r)-3-(5-(5-ethoxypyridin-2-yl)-4-phenyl-4H-1,2,4-triazol-3-yl)cyclobutyl)-1H-benzo[d]imidazole-2-carboxamide], the figures for the IC50 in the assay with HEK293 (setting [1]) and at TNKS2 were 102 nM and 7 nM, respectively.

In the case of `O=C(N[C@H]1C[C@H](c2nnc(-c3nccs3)n2-c2ccccc2F)C1)c1ccccc1` [Example 27, N-((1S,3r)-3-(4-(2-fluorophenyl)-5-(thiazol-2-yl)-4H-1,2,4-triazol-3-yl)cyclobutyl)benzamide], the results for the IC50 in the assay on HEK293 (setting [1]) and on TNKS2 were 470 nM and 250 nM, respectively.

Consider `O=C(N[C@H]1C[C@H](c2nnc(-c3nccs3)n2-c2ccc(Cl)s2)C1)c1ccccn1` [Example 79, N-((1r,3r)-3-(4-(5-chlorothiophen-2-yl)-5-(thiazol-2-yl)-4H-1,2,4-triazol-3-yl)cyclobutyl)picolinamide], for which the IC50 in the assay with HEK293 (setting [1]) is 140 nM; on TNKS2, 27 nM.

In the case of `O=C(N[C@H]1C[C@H](c2nnc(-c3nccs3)n2-c2ccccc2Cl)C1)c1ccccc1` [Example 43, N-((1S,3r)-3-(4-(2-chlorophenyl)-5-(thiazol-2-yl)-4H-1,2,4-triazol-3-yl)cyclobutyl)benzamide], the figures for the IC50 in the assay with HEK293 (setting [1]) and on TNKS2 were 82 nM and 7.9 nM, respectively.

Regarding `CCOc1ccc(-c2nnc([C@H]3C[C@H](NC(=O)c4ccnc5cccnc45)C3)n2-c2ccccn2)nc1` [Example 124, N-((1r,3r)-3-(5-(5-ethoxypridin-2-yl)-4-(pyridin-2-yl)-4H-1,2,4-triazol-3-yl)cyclobutyl)-1,5-naphthyridine-4-carboxamide], the IC50 was 36 nM in the assay on HEK293 (setting [2]) and 5.8 nM on TNKS2.

Consider `O=C(NC12CC(c3nnc(-c4ccncn4)n3-c3ccccc3Cl)(C1)C2)c1ccccc1` [Example 23, N-(3-(4-(2-chlorophenyl)-5-(pyrimidin-4-yl)-4H-1,2,4-triazol-3-yl)bicyclo[1.1.1]pentan-1-yl)benzamide], for which the figures for the IC50 with HEK293 (setting [1]) and on TNKS2 were 100 nM and 3.8 nM, respectively.

With `CCOc1ccc(-c2nnc([C@H]3C[C@H](NC(=O)c4cc5ccccc5cn4)C3)n2-c2ccccc2F)nc1` [Example 99, N-((1S,3r)-3-(5-(5-ethoxypyridin-2-yl)-4-(2-fluorophenyl)-4H-1,2,4-triazol-3-yl)cyclobutyl)isoquinoline-3-carboxamide], the IC50 with HEK293 (setting [1]) was 18 nM; on TNKS2 it was 5.4 nM.

In the case of `O=C(N[C@H]1C[C@H](c2nnc(-c3ccncn3)n2-c2ccccc2Cl)C1)c1ccnc2ccccc12` [Example 6, N-((1S,3r)-3-(4-(2-chlorophenyl)-5-(pyrimidin-4-yl)-4H-1,2,4-triazol-3-yl)cyclobutyl)quinoline-4-carboxamide], the IC50 in the assay with HEK293 (setting [1]) amounted to 1300 nM; at TNKS2 it was 680 nM.

For `CCOc1ccc(-c2nnc([C@H]3C[C@H](NC(=O)c4ccnc5cc(F)cnc45)C3)n2-c2ccc(C)s2)nc1` [Example 84, N-((1r,3r)-3-(5-(5-ethoxypyridin-2-yl)-4-(5-methylthiophen-2-yl)-4H-1,2,4-triazol-3-yl)cyclobutyl)-7-fluoro-1,5-naphthyridine-4-carboxamide], the IC50 came to 1 nM with HEK293 (setting [2]) and 1.6 nM at TNKS2.

Turning to `CCOc1ccc(-c2nnc([C@H]3C[C@H](NC(=O)c4ccc(C(C)(C)O)cn4)C3)n2-c2ccccc2F)nc1` [Example 101, N-((1S,3r)-3-(5-(5-ethoxypyridin-2-yl)-4-(2-fluorophenyl)-4H-1,2,4-triazol-3-yl)cyclobutyl)-5-(2-hydroxypropan-2-yl)picolinamide], the figures for the half-maximal inhibitory concentration (IC50) in the assay with HEK293 (setting [1]) and at TNKS2 were 96 nM and 22 nM, respectively.

As to `O=C(N[C@H]1C[C@H](c2nnc(-c3ccncn3)n2-c2ccccc2Cl)C1)c1ccccc1F` [Example 13, N-((1S,3r)-3-(4-(2-chlorophenyl)-5-(pyrimidin-4-yl)-4H-1,2,4-triazol-3-yl)cyclobutyl)-2-fluorobenzamide], the IC50 with HEK293 (setting [1]) was determined as 30 nM; at TNKS2, 6.4 nM.

In the case of `CCOc1ccc(-c2nnc([C@H]3C[C@H](NC(=O)c4cc5cc(OC)ncc5[nH]4)C3)n2-c2ccccc2F)nc1` [Example 127, N-((1S,3r)-3-(5-(5-ethoxypyridin-2-yl)-4-(2-fluorophenyl)-4H-1,2,4-triazol-3-yl)cyclobutyl)-5-methoxy-1H-pyrrolo[2,3-c]pyridine-2-carboxamide], the results for the IC50 with HEK293 (setting [1]) and at TNKS2 were 9.1 nM and 4.3 nM, respectively.

For the molecule `CCOc1ccc(-c2nnc([C@H]3C[C@H](NC(=O)c4cc5ccncc5[nH]4)C3)n2-c2ccccc2F)nc1` [Example 126, N-((1S,3r)-3-(5-(5-ethoxypyridin-2-yl)-4-(2-fluorophenyl)-4H-1,2,4-triazol-3-yl)cyclobutyl)-1H-pyrrolo[2,3-c]pyridine-2-carboxamide], the IC50 in the assay with HEK293 (setting [1]) turned out to be 27 nM; at TNKS2 it was 4.1 nM.

Turning to `CCOc1ccc(-c2nnc([C@H]3C[C@H](NC(=O)c4ccc5cc[nH]c5n4)C3)n2-c2ccccc2F)nc1` [Example 98, N-((1S,3r)-3-(5-(5-ethoxypyridin-2-yl)-4-(2-fluorophenyl)-4H-1,2,4-triazol-3-yl)cyclobutyl)-1H-pyrrolo[2,3-b]pyridine-6-carboxamide], the IC50 in the assay with HEK293 (setting [1]) stood at 14 nM; at TNKS2, 4.9 nM.

Turning to `O=C(N[C@H]1C[C@H](c2nnc(-c3ccncn3)n2-c2ccccc2Cl)C1)c1ccnc2cccnc12` [Example 5, N-((1S,3r)-3-(4-(2-chlorophenyl)-5-(pyrimidin-4-yl)-4H-1,2,4-triazol-3-yl)cyclobutyl)-1,5-naphthyridine-4-carboxamide], the IC50 worked out at 1 nM with HEK293 (Homo sapiens, HEK293; read-out: Cellular IC50 HEK293) and 0.85 nM on TNKS2.

For the molecule `O=C(N[C@H]1C[C@H](c2nnc(-c3nccs3)n2-c2ccccc2)C1)c1ccnc2cccnc12` [Example 33, N-((1r,3r)-3-(4-phenyl-5-(thiazol-2-yl)-4H-1,2,4-triazol-3-yl)cyclobutyl)-1,5-naphthyridine-4-carboxamide], the IC50 turned out to be 4.3 nM in the assay with HEK293 (setting [1]) and 3.1 nM at TNKS2.

As for `O=C(N[C@H]1C[C@H](c2nnc(-c3ccncn3)n2-c2ccccc2Cl)C1)c1cccc(F)c1` [Example 14, N-((1S,3r)-3-(4-(2-chlorophenyl)-5-(pyrimidin-4-yl)-4H-1,2,4-triazol-3-yl)cyclobutyl)-3-fluorobenzamide], the IC50 in the assay with HEK293 (setting [1]) was found to be 40 nM; on TNKS2, 6.7 nM.

On to `CCOc1ccc(-c2nnc([C@H]3C[C@H](NC(=O)c4ccc5ncccc5n4)C3)n2-c2ccccc2F)nc1` [Example 96, N-((1S,3r)-3-(5-(5-ethoxypyridin-2-yl)-4-(2-fluorophenyl)-4H-1,2,4-triazol-3-yl)cyclobutyl)-1,5-naphthyridine-2-carboxamide], for which the values for the IC50 in the assay with HEK293 (setting [2]) and at TNKS2 were 5 nM and 1.5 nM, respectively.

Turning to `CCOc1ccc(-c2nnc([C@H]3C[C@H](NC(=O)c4ccccn4)C3)n2-c2ccccc2Cl)nc1` [Example 134, N-((1S,3r)-3-(4-(2-chlorophenyl)-5-(5-ethoxypyridin-2-yl)-4H-1,2,4-triazol-3-yl)cyclobutyl)picolinamide], the IC50 in the assay on HEK293 (setting [1]) came out at 4.5 nM; on TNKS2, 3.7 nM.

In the case of `CCOc1ccc(-c2nnc([C@H]3C[C@H](NC(=O)c4cc5sccc5[nH]4)C3)n2-c2ccccc2F)nc1` [Example 149, N-((1S,3r)-3-(5-(5-ethoxypyridin-2-yl)-4-(2-fluorophenyl)-4H-1,2,4-triazol-3-yl)cyclobutyl)-4H-thieno[3,2-b]pyrrole-5-carboxamide], the IC50 with HEK293 (setting [1]) worked out at 27 nM; on TNKS2, 7.4 nM.

For the molecule `CCOc1ccc(-c2nnc([C@H]3C[C@H](NC(=O)c4ncccc4C)C3)n2-c2ccccc2F)nc1` [Example 102, N-((1S,3r)-3-(5-(5-ethoxypyridin-2-yl)-4-(2-fluorophenyl)-4H-1,2,4-triazol-3-yl)cyclobutyl)-3-methylpicolinamide], the values for the IC50 in the assay with HEK293 (setting [1]) and on TNKS2 were 919 nM and 190 nM, respectively.

As for `O=C(N[C@H]1C[C@H](c2nnc(-c3nccs3)n2-c2ccccc2)C1)c1ccccc1` [Example 34, N-((1r,3r)-3-(4-phenyl-5-(thiazol-2-yl)-4H-1,2,4-triazol-3-yl)cyclobutyl)benzamide], the IC50 in the assay on HEK293 (setting [1]) was 921 nM; at TNKS2, 290 nM.

For the molecule `O=C(N[C@H]1C[C@H](c2nnc(-c3ccncn3)n2-c2ccccc2Cl)C1)c1ccncc1` [Example 8, N-((1S,3r)-3-(4-(2-chlorophenyl)-5-(pyrimidin-4-yl)-4H-1,2,4-triazol-3-yl)cyclobutyl)isonicotinamide], the results for the IC50 in the assay with HEK293 (setting [1]) and at TNKS2 were 70 nM and 57 nM, respectively.

Regarding `O=C(N[C@H]1C[C@H](c2nnc(-c3nccs3)n2-c2ccccc2)C1)c1ccc(F)cc1` [Example 35, 4-fluoro-N-((1r,3r)-3-(4-phenyl-5-(thiazol-2-yl)-4H-1,2,4-triazol-3-yl)cyclobutyl)benzamide], the 50% inhibitory concentration (IC50) in the assay on HEK293 (setting [1]) was 580 nM; at TNKS2, 120 nM.

On to `CCOc1ccc(-c2nnc([C@H]3C[C@H](NC(=O)c4ccc5ccccc5n4)C3)n2-c2ccccc2F)nc1` [Example 104, N-((1S,3r)-3-(5-(5-ethoxypyridin-2-yl)-4-(2-fluorophenyl)-4H-1,2,4-triazol-3-yl)cyclobutyl)quinoline-2-carboxamide], for which the IC50 in the assay on HEK293 (setting [1]) came to 14 nM; at TNKS2 it was 6.4 nM.

Take `CS(=O)(=O)c1ccc(-c2nnc([C@H]3C[C@H](NC(=O)c4ccc(F)cn4)C3)n2-c2ccccc2F)nc1` [Example 107, 5-fluoro-N-((1S,3r)-3-(4-(2-fluorophenyl)-5-(5-(methylsulfonyl)pyridin-2-yl)-4H-1,2,4-triazol-3-yl)cyclobutyl) picolinamide]: the IC50 with HEK293 (setting [1]) was 32 nM; on TNKS2, 5.7 nM.

Consider `CCOc1ccc(C(=O)N[C@H]2C[C@H](c3nnc(-c4ccc(OCC)cn4)n3-c3ccccc3F)C2)nc1` [Example 58, 5-ethoxy-N-((1S,3r)-3-(5-(5-ethoxypyridin-2-yl)-4-(2-fluorophenyl)-4H-1,2,4-triazol-3-yl)cyclobutyl)picolinamide], for which the IC50 with HEK293 (setting [1]) was 10 nM; at TNKS2, 2 nM.
